# Results reported in patent US20050192356A1, “Synergistic anti-inflammatory pharmaceutical compositions and methods of use” (priority 2004, published 2005).
# Where two headings read alike, the source gives them in different places.
# Tested on: PGE2 synthesis in AGS cells
# Assay: PGE2 synthesis in the AGS human gastric mucosal cell model (A23187)
# Assay type: cell-based
# Procedure: Exponentially growing cells were seeded into 6-well plates and grown to confluence. A 20 μL aliquot of the supernatant media was sampled for determination of PGE2 content. Cells were then washed in PBS, scraped and lysed for immunoblotting.
# [1] = AGS cells, historical control values, read-out: AGS IC50 for PGE2 synthesis, historical control
SMILES,"IC50 (AGS, read-out: AGS IC50 for PGE2 synthesis, historical control)",IC50 [1],"IC50 (AGS cells, test material 60 minutes prior to A23187, media removed 30 minutes later, average of three independent assays, read-out: AGS IC50 for PGE2 synthesis)"
Cc1ccc(-c2cc(C(F)(F)F)nn2-c2ccc(S(N)(=O)=O)cc2)cc1 [Celcoxib],0.024 µg/mL,,
CC(C)Cc1ccc(C(C)C(=O)O)cc1 (centres unmarked) [Ibuprofen],,0.57 µg/mL,
CS(=O)(=O)c1ccc(C2=C(c3ccccc3)C(=O)OC2)cc1 [Rofecoxib],,1.8 µg/mL,
CC(=O)Oc1ccccc1C(=O)O [Aspirin],,0.52 µg/mL,1.2 µg/mL
